Measurements reported in patent US20240282989A1, “PHENOTHIAZINE DERIVATIVES AND REDOX-FLOW BATTERIES” (University of Kentucky Research Foundation, priority 2023, published 2024).

Key:
Format in all cases: physicochemical
[1] = Solubility / miscibility measurement (NMR method, internal standard); conditions: for solubility: organic solvent or mixture, NMR method
Protocol: The MEEPRT-TFSI monomer is a viscous liquid at room temperature, the miscibility was determined in acetonitrile and 0.1 M TEATFSI in acetonitrile. In both solvents, it is miscible when mixed with 1:10, 10:1, and 1:1 ratio by wt. of acetonitrile:redoxomers. Solubility of redoxomers were determined by NMR method using 1,4-bis(trifluoromethyl)benzene as an internal standard.

[2] = Cyclic voltammetry of monomer and dimer; conditions: for 1st oxidation potential / ipa/ipc / peak separation: 1 mM in 0.1 M TEABF4/ACN; for redox event (number of electrons, reversibility) / oxidation potential: 10 mM solution; for redox event (number of electrons, reversibility): cyclic voltammetry; for ipa/ipc / peak separation: 1st oxidation; for oxidation potential: referenced to Fc/Fc+, glassy carbon working electrode
Protocol: The electrochemical stability and reversibility of redox-events were determined by cyclic voltammetry experiments, which were carried out in a CH Instrument potentiostat with glassy carbon electrode as a working electrode, Pt-wire electrode as a counter electrode and a silver electrode as a reference electrode. […]

[3] = Cross-over experiments in custom-built H-cell with FAPQ-375-PP membrane; conditions: 0.1 M redoxomer in anhydrous acetonitrile; two layers FAPQ-375-PP membrane; CV of blank side up to 24 h
Protocol: We compared cross-over fractions of our newly synthesized redoxomers with our previous redoxomers such as MEEPT and EPRT-TFSI using a custom-built H-cell. A stack of two layer of FAPQ-375-PP membrane pre-soaked in acetonitrile for 24 h was used as membrane between two compartments of H-cell. For each set of experiment, a 0.1 M solution of redoxomer in anhydrous acetonitrile on the left side and acetonitrile (blank solution) on the right side. The cross over fractions were determined by cyclic voltammetry of the solution from the blank side in 0 h, 2 h, 4 h, 8 h, 12 h, and 24 h in a argon-filled glovebox.

## CC(CN1c2ccccc2Sc2ccccc21)[N+](C)(C)CCOCCOCC[N+](C)(C)C(C)CN1c2ccccc2Sc2ccccc21 (stereo not drawn) [EEEPRT-TFSI2]
[1]; in 0.1 M TEATFSI in acetonitrile
  solubility: 1200 mM
[1]; in acetonitrile
  solubility: 1600 mM
[2]
  1st oxidation potential: 0.54 V
  redox event (number of electrons, reversibility): two-electron reversible redox event
  ipa/ipc: 1.06
  peak separation: 59 mV
  oxidation potential: same potential
[3]
  cross over fraction: 0.0037

## COCCOCC[N+](C)(C)C(C)CN1c2ccccc2Sc2ccccc21 (stereo not drawn) [MEEPRT-TFSI]
[1]; in 0.1 M TEATFSI in acetonitrile, 1:10, 10:1 and 1:1 ratio by wt.
  miscibility: miscible
[1]; in acetonitrile, 1:10, 10:1 and 1:1 ratio by wt. acetonitrile:redoxomers, room temperature
  miscibility: miscible
[2]
  1st oxidation potential: 0.54 V
  redox event (number of electrons, reversibility): single electron reversible redox reaction
  ipa/ipc: 1.06
  peak separation: 59 mV
  oxidation potential: 0.54 V
[3]
  cross over fraction: 0.0346

## COCCOCCN1c2ccccc2Sc2ccccc21 [MEEPT, reference compound]
[3]
  cross over fraction: 0.0471

## CC(C[N+]1c2ccccc2Sc2ccccc21)[N+](C)(C)CCOCCOCC[N+](C)(C)C(C)C[N+]1c2ccccc2Sc2ccccc21 (stereo not drawn) [dimer radical cation]
[1]; in acetonitrile, 1:1, 10:1 and 1:10 by wt.
  miscibility of radical cations: completely miscible
